The text below walks through data of ChEMBL document CHEMBL1914304 (J Med Chem, 2011).

Molecules are shown by their SMILES.

For one data set, the system named is HEK293. Kind of data set: Cytotoxicity against human HEK293 cells after 72 hrs by luminescence assay. It is filed as cell-based. To be noted: hek293, 72 h.
The next data set concerns Raji. As to the kind of experiment: Cytotoxicity against human Raji cells after 72 hrs by luminescence assay. Type of data set: cell-based.
The test system of another data set is HepG2. Kind of data set: Cytotoxicity against human HepG2 cells after 72 hrs by luminescence assay. To be noted: hepg2, 72 h. Type of data set: cell-based.
The test system of a further data set is BJ. As to the kind of experiment: Cytotoxicity against human BJ cells after 72 hrs by luminescence assay. Type of data set: cell-based.
Data set [1] in a line: Selectivity ratio of EC50 for human HepG2 cells to EC50 for Plasmodium falciparum.

Take `COc1cccc(N2CCN(CC(O)COc3ccccc3C(=O)CCc3ccc(F)cc3)CC2)c1.Cl` (racemic): the Activity entry in the data set on HEK293, in the data set on Raji, in the data set on HepG2 and in the data set on BJ was “Non-toxic” each time. Moreover, the selectivity ratio in data set [1] was above 10.
For the molecule `COc1ccc(N2CCN(CC(O)COc3ccccc3C(=O)CCc3ccc(F)cc3)CC2)cc1.Cl` (racemic), the Activity entry in the data set on HEK293, in the data set with Raji, in the data set with HepG2 and in the data set with BJ was “Non-toxic” in each case. The selectivity ratio in data set [1] is above 10.
Take `Cl.O=C(CCc1ccc(F)cc1)c1ccccc1OCC(O)CN1CCN(c2ccccc2Cl)CC1` (racemic): the Activity result in the data set on HEK293, in the data set with Raji, in the data set with HepG2 and with BJ was “Non-toxic” each time. In addition, in data set [1], the selectivity ratio is above 10.
With `Cl.O=C(CCc1ccc(F)cc1)c1ccccc1OCC(O)CN1CCN(c2ccc(Cl)cc2)CC1` (racemic), the Activity entry with HEK293, with Raji, with HepG2 and in the data set with BJ was “Non-toxic” each time. Further, the selectivity ratio in data set [1] was above 10.
Take `Cl.O=C(CCc1ccc(F)cc1)c1ccccc1OCC(O)CN1CCN(c2ccc(Cl)c(Cl)c2)CC1` (racemic): the Activity result in the data set on HEK293, with Raji, in the data set with HepG2 and with BJ was “Non-toxic” each time. The selectivity ratio in data set [1] was above 10.
Take `Cl.O=C(CCc1ccc(F)cc1)c1ccccc1OCC(O)CN1CCN(c2ccccc2F)CC1` (racemic): the Activity result with HEK293, in the data set on Raji, in the data set with HepG2 and in the data set on BJ was “Non-toxic” in each case. Also, the selectivity ratio in data set [1] was above 10.
Take `Cl.O=C(CCc1ccc(F)cc1)c1ccccc1OCC(O)CN1CCN(c2ccc(F)cc2)CC1` (racemic): the Activity result in the data set with HEK293, in the data set with Raji, with HepG2 and in the data set with BJ was “Non-toxic” each time. In data set [1], the selectivity ratio was above 10.
In the case of `Cl.O=C(CCc1ccc(F)cc1)c1ccccc1OCC(O)CN1CCN(c2ccc([N+](=O)[O-])cc2)CC1` (racemic), the Activity result in the data set on HEK293, in the data set with Raji, with HepG2 and with BJ was “Non-toxic” throughout. Moreover, the selectivity ratio in data set [1] was above 10.
As for `Cl.Nc1ccc(N2CCN(CC(O)COc3ccccc3C(=O)CCc3ccc(F)cc3)CC2)cc1` (racemic), the Activity entry in the data set with HEK293, in the data set on Raji, with HepG2 and in the data set with BJ was “Non-toxic” each time. Further, the selectivity ratio in data set [1] is above 10.
As to `Cl.O=C(CCc1ccc(F)cc1)c1ccccc1OCC(O)CN1CCN(c2ccc(O)cc2)CC1` (racemic), the Activity result with HEK293, in the data set on Raji, in the data set on HepG2 and with BJ was “Non-toxic” in each case. Besides, the selectivity ratio in data set [1] was above 10.
Consider `Cl.O=C(CCc1ccc(F)cc1)c1ccccc1OCC(O)CN1CCN(c2ccc(C(F)(F)F)cc2)CC1` (racemic), for which the Activity entry in the data set on HEK293, in the data set on Raji, with HepG2 and in the data set on BJ was “Non-toxic” each time. Moreover, the selectivity ratio in data set [1] was above 10.
As for `Cl.O=C(CCc1ccc(F)cc1)c1ccccc1OCC(O)CN1CCN(C(=O)c2ccccc2)CC1` (racemic), the Activity entry in the data set on HEK293, in the data set with Raji, in the data set on HepG2 and with BJ was “Non-toxic” in each case. For the same molecule, the selectivity ratio in data set [1] is above 10.
